From patent US20070026080A1, “Manufacturing process for tigecycline” (Wyeth, priority 2005, published 2007)

Assay: Strength and degradation profile of tigecycline 20 mg/mL bulk solutions by reversed phase HPLC (effect of temperature, time, pH, dissolved oxygen; Runs A to O)
Type: physicochemical
Settings: 8° C.
Method: The contents of the sample vials are dissolved in diluent. The sample solution is diluted, if necessary, and chromatographed on a reversed phase column using gradient elution. Impurities are determined by comparing the impurity peak areas in the sample preparation chromatogram to the average area of tigecycline peaks in the standard preparation chromatograms obtained concomitantly.
Chromatographic Column—Length about 15 cm, inside diameter about 4.6 mm, packed with Inertsil ODS2, 5 μm size particles or equivalent.
Detector—Ultraviolet spectrophotometric detector capable of operating at 248 nm with a sensitivity of about 0.5 absorbance units full scale.
The results of additional studies to investigate the effect of processing parameters such as temperature, time, and dissolved oxygen content on the purity profile of tigecycline solutions using the following materials, methods and procedures are presented in Tables A to O.
The experiments were run in plastic glove bags under normal laboratory light conditions. Plastic glove boxes will be used to control the headspace of the beakers. The batch size was 200 mL. • 1. Prepare the glove bag with a mixture of nitrogen and air to achieve an oxygen level in the solution as per the design. • 2. Place the jacketed beaker on the magnetic stirrer. Connect it to the cooler. Set the cooler to the desired set point. • 3. Add 200 mL of SWFI in to the beaker. Allow equilibrating. Measure the temperature and oxygen content. When it reaches the desired condition, add accurately weighed API and mix until dissolved. If necessary use spatula to aid dissolution. For pH adjustments, use 4 mL of either 0.1N NaOH or 0.1N HCl and 196 mL of WFI for manufacture. • 4. After complete dissolution, Transfer about 5.5 mL of Solution in vials and stopper them. These vials will be stoppered at the appropriate headspace conditions. Place the vials in appropriate temperature conditions. • 5. Sample the vials at 1, 4, 8, 10, 12 and 24 hours. Send the samples for analysis. Freeze the 10, 12 and 24 samples at −20° C. for analysis the following day. • 6. Measure pH and record color of the solution at each time point. Results
The 1-hour samples were taken directly from the beakers. Samples for later time points were collected in stoppered vials processed in the atmosphere of the bag in order to simulate the headspace conditions then placed in water baths or refrigerator to maintain there respective temperature conditions. This was done to maintain safety in the lab. Disposable plastic glove bags require constant flow of a mixture of nitrogen and air to maintain headspace oxygen level that will result in the desired dissolved oxygen (DO) content in the sample. The pH of samples was measured at each sample points.
Strength and degradation profile was analyzed by HPLC as described above. […] Degradation was slightly higher at higher temperature condition.

[1] = Run #M, pH 7.7, Oxygen = 0.1 mg/L, 10 Hrs
[2] = Run #M, pH 7.7, Oxygen = 0.1 mg/L, 12 Hrs
[3] = Run #M, pH 7.7, Oxygen = 0.1 mg/L, 24 Hrs
[4] = Run #N, pH 8.2, Oxygen = 0.1 mg/L, 1 Hrs
[5] = Run #N, pH 8.2, Oxygen = 0.1 mg/L, 1R Hrs
[6] = Run #N, pH 8.2, Oxygen = 0.1 mg/L, 4 Hrs

CN(C)c1cc(NC(=O)CNC(C)(C)C)c(O)c2c1C[C@H]1C[C@H]3[C@H](N(C)C)C(O)=C(C(N)=O)C(=O)[C@@]3(O)C(O)=C1C2=O [Tigecycline]
RRT 1.12 [1]: BRL (BRL means below reporting limit (meaning less than 0.05% of tigecycline peak))
RRT 1.45 [1]: 0.07%
RRT 1.58 [1]: BRL (BRL means below reporting limit (meaning less than 0.05% of tigecycline peak))
RRT 1.64 Mino [1]: 0.09%
RRT 1.67 MW = 556 [1]: (<0.05) %
RRT 1.85 MW = 597 [1]: 0.08%
Strength [1]: 19.240 mg/mL
Total [1]: 0.71%
RRT 0.12 MW = 633 [2]: BRL (BRL means below reporting limit (meaning less than 0.05% of tigecycline peak))
RRT 0.23 MW = 572 [2]: BRL (BRL means below reporting limit (meaning less than 0.05% of tigecycline peak))
RRT 0.50 MW = 601 [2]: BRL (BRL means below reporting limit (meaning less than 0.05% of tigecycline peak))
RRT 0.55 MW = 583 [2]: 0.07%
RRT 0.58 [2]: BRL (BRL means below reporting limit (meaning less than 0.05% of tigecycline peak))
RRT 0.64 9-Amino [2]: BRL (BRL means below reporting limit (meaning less than 0.05% of tigecycline peak))
RRT 0.74 Epimer [2]: 0.27%
RRT 0.76 [2]: 0.05%
RRT 0.78 MW = 557 [2]: BRL (BRL means below reporting limit (meaning less than 0.05% of tigecycline peak))
RRT 1.12 [2]: BRL (BRL means below reporting limit (meaning less than 0.05% of tigecycline peak))
RRT 1.45 [2]: 0.07%
RRT 1.58 [2]: BRL (BRL means below reporting limit (meaning less than 0.05% of tigecycline peak))
RRT 1.64 Mino [2]: 0.12%
RRT 1.67 MW = 556 [2]: 0.07%
RRT 1.85 MW = 597 [2]: 0.08%
Strength [2]: 19.240 mg/mL
Total [2]: 0.73%
RRT 0.12 MW = 633 [3]: BRL (BRL means below reporting limit (meaning less than 0.05% of tigecycline peak))
RRT 0.23 MW = 572 [3]: BRL (BRL means below reporting limit (meaning less than 0.05% of tigecycline peak))
RRT 0.50 MW = 601 [3]: BRL (BRL means below reporting limit (meaning less than 0.05% of tigecycline peak))
RRT 0.55 MW = 583 [3]: BRL (BRL means below reporting limit (meaning less than 0.05% of tigecycline peak))
RRT 0.58 [3]: 0.08%
RRT 0.64 9-Amino [3]: BRL (BRL means below reporting limit (meaning less than 0.05% of tigecycline peak))
RRT 0.74 Epimer [3]: 0.29%
RRT 0.76 [3]: BRL (BRL means below reporting limit (meaning less than 0.05% of tigecycline peak))
RRT 0.78 MW = 557 [3]: BRL (BRL means below reporting limit (meaning less than 0.05% of tigecycline peak))
RRT 1.12 [3]: BRL (BRL means below reporting limit (meaning less than 0.05% of tigecycline peak))
RRT 1.45 [3]: 0.09%
RRT 1.58 [3]: BRL (BRL means below reporting limit (meaning less than 0.05% of tigecycline peak))
RRT 1.64 Mino [3]: 0.09%
RRT 1.67 MW = 556 [3]: (<0.05) %
RRT 1.85 MW = 597 [3]: 0.08%
Strength [3]: 19.193 mg/mL
Total [3]: 0.62%
RRT 1.12 (Run #N, pH 8.2, Oxygen = 0.1 mg/L): BRL (BRL means below reporting limit (meaning less than 0.05% of tigecycline peak))
RRT 0.12 MW = 633 [4]: BRL (BRL means below reporting limit (meaning less than 0.05% of tigecycline peak))
RRT 0.23 MW = 572 [4]: BRL (BRL means below reporting limit (meaning less than 0.05% of tigecycline peak))
RRT 0.50 MW = 601 [4]: BRL (BRL means below reporting limit (meaning less than 0.05% of tigecycline peak))
RRT 0.55 MW = 583 [4]: BRL (BRL means below reporting limit (meaning less than 0.05% of tigecycline peak))
RRT 0.58 [4]: 0.07%
RRT 0.64 9-Amino [4]: BRL (BRL means below reporting limit (meaning less than 0.05% of tigecycline peak))
RRT 0.74 Epimer [4]: 0.20%
RRT 0.76 [4]: BRL (BRL means below reporting limit (meaning less than 0.05% of tigecycline peak))
RRT 0.78 MW = 557 [4]: BRL (BRL means below reporting limit (meaning less than 0.05% of tigecycline peak))
RRT 1.12 [4]: BRL (BRL means below reporting limit (meaning less than 0.05% of tigecycline peak))
RRT 1.45 [4]: 0.07%
RRT 1.58 [4]: BRL (BRL means below reporting limit (meaning less than 0.05% of tigecycline peak))
RRT 1.64 Mino [4]: (<0.05) %
RRT 1.67 MW = 556 [4]: BRL (BRL means below reporting limit (meaning less than 0.05% of tigecycline peak))
RRT 1.85 MW = 597 [4]: 0.11%
Strength [4]: 19.343 mg/mL
Total [4]: 0.46%
RRT 0.12 MW = 633 [5]: BRL (BRL means below reporting limit (meaning less than 0.05% of tigecycline peak))
RRT 0.23 MW = 572 [5]: BRL (BRL means below reporting limit (meaning less than 0.05% of tigecycline peak))
RRT 0.50 MW = 601 [5]: BRL (BRL means below reporting limit (meaning less than 0.05% of tigecycline peak))
RRT 0.55 MW = 583 [5]: 0.06%
RRT 0.58 [5]: 0.06%
RRT 0.64 9-Amino [5]: BRL (BRL means below reporting limit (meaning less than 0.05% of tigecycline peak))
RRT 0.74 Epimer [5]: 0.29%
RRT 0.76 [5]: 0.05%
RRT 0.78 MW = 557 [5]: BRL (BRL means below reporting limit (meaning less than 0.05% of tigecycline peak))
RRT 1.45 [5]: 0.09%
RRT 1.58 [5]: BRL (BRL means below reporting limit (meaning less than 0.05% of tigecycline peak))
RRT 1.64 Mino [5]: 0.08%
RRT 1.67 MW = 556 [5]: BRL (BRL means below reporting limit (meaning less than 0.05% of tigecycline peak))
RRT 1.85 MW = 597 [5]: 0.09%
Strength [5]: 19.415 mg/mL
Total [5]: 0.72%
RRT 0.12 MW = 633 [6]: BRL (BRL means below reporting limit (meaning less than 0.05% of tigecycline peak))
RRT 0.23 MW = 572 [6]: BRL (BRL means below reporting limit (meaning less than 0.05% of tigecycline peak))
RRT 0.50 MW = 601 [6]: BRL (BRL means below reporting limit (meaning less than 0.05% of tigecycline peak))
RRT 0.55 MW = 583 [6]: BRL (BRL means below reporting limit (meaning less than 0.05% of tigecycline peak))
RRT 0.58 [6]: 0.07%
RRT 0.64 9-Amino [6]: BRL (BRL means below reporting limit (meaning less than 0.05% of tigecycline peak))
RRT 0.74 Epimer [6]: 0.21%
RRT 0.76 [6]: BRL (BRL means below reporting limit (meaning less than 0.05% of tigecycline peak))
